Measured values reported in patent US8138191B2, “Inhibitor compounds and cancer treatment methods” (Critical Outcome Technologies Inc., priority 2007, dated 2012).

Columns and labels:
[1] = test system: SHP 77 cells; experiment: Proliferation with anti-cancer agents plus COTI-2, SHP 77; assay type: cell-based, human
[2] = test system: Akt kinase activity in DMS-114 cells; experiment: Akt kinase activity (immunoprecipitated Akt, GSK-3 phosphorylation), DMS-114; conditions: DMS-114, 250 nM, 8 hrs
Description: Briefly, after lysing the cells in a protein non-denaturing buffer, Akt is immunoprecipitated with immobilized antibody. The kinase reaction catalyzed by immunoprecipitated Akt consists of in vitro phosphorylation of supplemented recombinant GSK-3, a natural in vivo Akt substrate, in the presence of added ATP. The amount of phosphorylated GSK-3 is determined by western blot analysis with phospho-GSK-3αβ(Ser21/9) antibody.
Briefly, after lysing the cells in a protein non-denaturing buffer, AKT was immunoprecipitated with immobilized antibody. The kinase reaction catalyzed by immunoprecipitated AKT consists of in vitro phosphorylation of supplemented recombinant GSK-3, a natural in vivo AKT substrate, in the presence of added ATP. The amount of phosphorylated GSK-3 was determined by western blot analysis with phospho-GSK-3αβ(Ser21/9) antibody.

[3] = test system: DMS114 cells; experiment: Proliferation with anti-cancer agents plus COTI-2, DMS114; assay type: cell-based, human
[4] = test system: SHP77 cells; experiment: Western blots of cellular lysates of SHP77 cells treated with COTI-2; assay type: cell-based, human; conditions: 250 nM
Description: To confirm this mechanism SHP77 cells were treated with 250 nM of COTI-2 and incubated for 3 and 6 hours. Phospho-Akt expression was decreased as compared to control at both 3 and 6 hours, with corresponding increases in Akt levels.

[5] = test system: AKT1, AKT2, AKT3 expression in a panel of cell lines; experiment: Correlation between AKT isoform expression and COTI-2 IC50 in a panel of cell lines; assay type: cell-based, human; conditions: corrected for total AKT expression
Description: Cell cultures were maintained under regular tissue culture conditions and passaged 1-2 times a week as recommended by ATCC. For siRNA experiments the manufacturer's conditions for growth and transfection were followed. All siRNA reagents for AKT and AKT2 transfections were obtained from Cell Signaling.
Routine laboratory methods were employed for the production of cellular lysates, protein quantification, SDS-PAGE and western blotting. All antibodies were obtained from Cell Signaling and Abcam. To determine total AKT & AKT2 in DMS114 cells, 5×10^4 cells were incubated for 48 h with 10-100 ng of AKT2 siRNA or a scrambled control oligonucleotide. Cells were lysed and 50 μg of protein was separated by SDS-PAGE and blotted with antibody to total AKT or AKT2.
The expression of AKT1, AKT2, AKT3, total AKT and β-actin were examined in a panel of cell lines representing various types of cancers, with the aim of determining if a correlation exists with the pre-determined IC50's for these cell lines. […] The down-regulation of AKT2 prior to the addition of COTI-2 was confirmed with western blotting in DMS114 cell lines using an antibody to AKT2 (FIG. 35).

[6] = test system: TC7 (human intestinal epithelial cells); experiment: in vitro
Description: (§1) TC7 cells were seeded at 1×10^5 cells/cm^2 on porous polycarbonate membrane in 96-well Multiscreen™ plates (Millipore). Cells were fed every 2 to 3 days and the day before the permeability assay. Permeability assays are performed with the cells at days 13-25 post-seeding. The assay directions included apical to basolateral (A-B) and basolateral to apical (B-A). The working solution for COTI-2 was prepared at 10 μM in HBSS-MES (5 mM), pH 6.5, or HBSS-HEPES (5 mM), pH 7.4, from a 1 mM DMSO stock solution. The working solution was then centrifuged and the supernatant was added to the apical or basolateral side with a final DMSO concentration of 1%. The assay was incubated for 60 or 40 min with gentle shaking at 37° C. The sampling scheme consisted of donor time zero, donor time 60 or 40 min, and receiver time 60 or 40 min. Samples were analyzed via (RP)HPLC-MS/MS using selected reaction monitoring (SRM). […] The cell monolayer integrity was confirmed by fluorescein permeability assessment (in the A-B direction at pH 7.4 on both sides with 1 h incubation) after the permeability assay with COTI-2. The cell monolayer that has a fluorescein permeability of less than 0.5×10^−6 cm/s was considered intact. The apparent permeability coefficient (Papp) of COTI-2 in the […] and the percent recovery of the compounds were calculated.

[7] = in vitro; conditions: human
Description: as §1

[8] = A-B Permeability (TC7, pH 7.4/7.4) + verapamil; assay type: in vitro ADME; conditions: human, Caco-2, pH 7.4, with verapamil (concentration not stated), 1.0E−05 M
[9] = test system: SHP77 cells; experiment: siRNA target knock-down with COTI-219, cell viability by trypan blue, SHP77; assay type: cell-based, human; conditions: SHP77, 500 nM, 48 h
Description: In brief, cells DMS114 and SHP77 cells were transfected with gene specific siRNA in the presence or absence of COTI-219 and cell viability determined after 24 to 48 h post-incubation using the trypan blue exclusion method.
Cell cultures were maintained under regular tissue culture conditions and passaged 1-2 times a week as recommended by ATCC. With the exception of the siRNA for Bim (Signal Silence Bim siRNA kit #6460 from Cell Signaling), all other siRNA reagents for gene knock-down experiments was obtained from Ambion (Silencer Negative Control #1 siRNA #AM4611, CDK2 Silencer Select #s204, HRAS Silencer Select #s807, Protein kinase C alpha Silencer Validated #301, MAPK3/Erk Silencer Pre-designed #214749, EGFR Silencer Select #s563, and ERBB2 Silencer Select #s611). […] The transfection method required optimization such that a knock-down of the target gene greater than ˜75% was achieved and confirmed by western blot analyses. […] Following an optimal knock-down level at >75%, 2×10^5 cells were incubated with 500 nM COTI-219 and number of viable cells was measured at 48 h.
Cell viability assays were performed 24 to 48 h following incubation with COTI-219 by the trypan blue exclusion method using a Beckman-Coulter Vi-CELL XR 2.03 automated cell counter. Routine laboratory methods were employed for the production of cellular lysates, protein quantitation, SDS-PAGE and western blotting. […]

[10] = Caco-2, pH 7.4, Permeability Mean

S=C(N/N=C1/CCCc2cccnc21)N1CCN(c2ccccn2)CC1 [COTI-2]
reduction of proliferation as a single agent ([1]; SHP 77, 31 nM): 25%
reduction of proliferation as a single agent ([1]; SHP 77, 73 nM): 25%
Akt kinase activity [2]: below the threshold for measurement
reduction of proliferation as a single agent ([3]; DMS114, 31 nM): 25%
reduction of proliferation as a single agent ([3]; DMS114, 73 nM): 25%
Caspase 8 level of expression [4]: remained constant
phospho-STAT3 expression [4]: no change
Phospho-Akt expression ([4]; 3 and 6 hours): decreased
phospho-Caspase 9 ([4]; 3 and 6 hrs): profound suppression
decrease in total STAT3 ([4]; 6 hrs): ~30%
correlation of AKT2 expression with COTI-2 IC50 [5]: inversely correlated
Pgp substrate assessment ([6]; Caco-2): not a substrate of Pgp
Flags ([6]; Caco-2, pH 7.4): BLQ
efflux ratio at 10 µM ([7]; Caco-2): ~4.5
Papp A→B at 10 µM ([7]; Caco-2, A-B permeability (Papp)): < 0.3 ×10⁻⁶ cm/s
recovery at 10 µM ([7]; Caco-2, mean recovery): 22%
Papp A→B at 10 µM [7, 10]: < 0.3 ×10⁻⁶ cm/s
Papp B→A at 10 µM [7, 10]: 1.4 ×10⁻⁶ cm/s
recovery at 10 µM ([8]; 1st determination, read-out: Percent Recovery 1st): 17%
recovery at 10 µM ([8]; 2nd determination, read-out: Percent Recovery 2nd): 13%
recovery at 10 µM ([8]; mean, read-out: Percent Recovery Mean): 15%

CN1CCN(C(=S)NN=C2c3ncccc3-c3cccnc32)CC1 [COTI-219]
target knock-downs suppressing the apoptotic/cell growth inhibitory effect of COTI-219 [9]: not only Ras but Erbb2, Erk1, and PKC-α all suppressed
